Assay results reported in the RepoRT retention time repository (doi:10.1016/j.foodchem.2021.129757).

Legend:
Conditions in all cases: stereoisomer not certain
[1] = RP, Waters ACQUITY UPLC BEH Shield RP18, 150 × 2.1 mm, 1.7 µm, 40 °C, 0.4 mL/min, estimated dead time 0.83 min; A: water + 0.1% formic acid, pH 3; B: acetonitrile + 0.1% formic acid, pH 3; gradient (min/%B) 0/0 30/50 31/100 37/100 37.1/0
[2] = RP, 150 × 2.1 mm, 2.6 µm, 40 °C, 0.35 mL/min, estimated dead time 0.94 min; A: water + 0.1% formic acid, pH 3; B: acetonitrile + 0.1% formic acid, pH 3; gradient (min/%B) 0/0 1/0 12.5/100 14/100 14.2/0 15/0
[3] = Other, Phenomenex Kinetex PFP, 100 × 4.6 mm, 2.6 µm, 35 °C, 1.5 mL/min, estimated dead time 0.71 min; A: water + 0.1% trifluoroacetic acid, pH 2; B: acetonitrile + 0.1% trifluoroacetic acid, pH 2; gradient (min/%B) 0/1 7/7.5 14/7.6 17/10 18.5/12 20/12.5 24/30 25/90 25.1/1 32/1
[4] = RP, 50 × 0.5 mm, 2.7 µm, 35 °C, 0.01 mL/min, estimated dead time 0.62 min; A: water + 0.1% formic acid, pH 3; B: acetonitrile + 0.1% formic acid, pH 3; gradient (min/%B) 0/5 12/95 14/95 16/5
[5] = RP, Waters ACQUITY UPLC BEH C18, 100 × 2.1 mm, 1.7 µm, 65 °C, 0.4 mL/min, estimated dead time 0.55 min; A: water + 0.1% formic acid, pH 3; B: 80% acetonitrile + 20% acetone + 0.1% formic acid, pH 3; gradient (min/%B) 0/0 5/100 5.5/0 6/0
[6] = Other, Phenomenex Kinetex PFP, 100 × 4.6 mm, 5 µm, 45 °C, 0.6 mL/min, estimated dead time 1.8 min; A: water + 0.1% trifluoroacetic acid, pH 2; B: methanol; gradient (min/%B) 0/40 20/72 21/40
[7] = RP, Phenomenex Luna C18, 150 × 4.6 mm, 3 µm, 25 °C, 0.5 mL/min, estimated dead time 3.2 min; A: water + 0.1% formic acid, pH 3; B: acetonitrile + 0.1% formic acid, pH 3; gradient (min/%B) 0/0 30/30 35/40 50/80 52/80 60/0 65/0
[8] = RP, Phenomenex Synergi Hydro-RP, 250 × 2 mm, 4 µm, 25 °C, 0.2 mL/min, estimated dead time 2.5 min; A: water + 0.1% formic acid, pH 3; B: acetonitrile + 0.1% formic acid, pH 3; gradient (min/%B) 0/0.5 7/0.5 12/12.5 25/16.3 47/35 48/65 50/65 50.1/0.5
[9] = RP, Merck Supelco SUPELCOSIL LC-C18, 250 × 4.6 mm, 5 µm, 40 °C, 1 mL/min, estimated dead time 2.6 min; A: water + 0.1% trifluoroacetic acid, pH 2; B: acetonitrile + 0.1% trifluoroacetic acid, pH 2; gradient (min/%B) 0/5 45/35 47/75 49/35 50/5
[10] = RP, Waters ACQUITY UPLC HSS T3, 100 × 2.1 mm, 1.8 µm, 30 °C, 0.4 mL/min, estimated dead time 0.55 min; A: water + 0.1% formic acid, pH 3; B: acetonitrile + 0.1% formic acid, pH 3; gradient (min/%B) 0/0 2/0 15/100 22/100 22.1/0 26/0
[11] = RP, Agilent ZORBAX Eclipse XDB-C18, 100 × 2.1 mm, 1.8 µm, 50 °C, 0.4 mL/min, estimated dead time 0.55 min; A: water + 0.1% formic acid, pH 3; B: methanol + 0.1% formic acid, pH 3; gradient (min/%B) 0/2 10/100 14.5/100 14.51/2 16.5/2
[12] = RP, Agilent ZORBAX RRHD Eclipse Plus C18, 50 × 2.1 mm, 1.8 µm, 30 °C, 0.4 mL/min, estimated dead time 0.28 min; A: water + 0.1% formic acid, pH 3; B: acetonitrile + 0.1% formic acid, pH 3; gradient (min/%B) 0/1 5/10 8/25 9.1/99 10/99 12/99
[13] = RP, Phenomenex Luna Omega Polar C18, 100 × 2.1 mm, 1.6 µm, 40 °C, 0.5 mL/min, estimated dead time 0.44 min; A: water + 0.5% formic acid; B: acetonitrile + 0.5% formic acid; gradient (min/%B) 0/5 3/50 3.1/100 5/100 5.1/5 7/5
[14] = RP, 150 × 2.1 mm, 2.6 µm, 40 °C, 0.35 mL/min, estimated dead time 0.94 min; A: water + 0.1% formic acid, pH 3; B: acetonitrile + 0.1% formic acid, pH 3; gradient (min/%B) 0/0 1/5 7/45 8.5/80 10.5/80 11/5 12/5
[15] = RP, 100 × 0.5 mm, 2.7 µm, 45 °C, 0.015 mL/min, estimated dead time 0.83 min; A: water + 0.9% formic acid; B: acetonitrile + 0.9% formic acid; gradient (min/%B) 0/1 0.5/1 4/95 4.5/1 5/1
[16] = RP, Phenomenex Synergi Hydro-RP, 150 × 2 mm, 4 µm, 30 °C, 0.5 mL/min, estimated dead time 0.6 min; A: water + 0.1% formic acid, pH 3; B: acetonitrile + 0.1% formic acid, pH 3; gradient (min/%B) 0/5 1/5 35/45 40/100 45/100
[17] = RP, Agilent InfinityLab Poroshell 120 EC-C18, 100 × 3 mm, 2.7 µm, 25 °C, 0.4 mL/min, estimated dead time 1.1 min; A: water + 0.1% formic acid, pH 3; B: acetonitrile + 0.1% formic acid, pH 3; gradient (min/%B) 0/5 10/25 20/40 24/90 25/90 26/5 30/5
[18] = RP, Waters Atlantis T3, 100 × 2.1 mm, 3 µm, 40 °C, 0.3 mL/min, estimated dead time 0.73 min; A: water + 0.1% trifluoroacetic acid, pH 2; B: acetonitrile + 0.1% trifluoroacetic acid, pH 2; gradient (min/%B) 0/10 1/10 6/40 7/50 8/50 14/70 16/80 20/10 25/10
[19] = RP, Agilent ZORBAX RRHD Eclipse Plus C18, 50 × 2.1 mm, 1.8 µm, 30 °C, 0.4 mL/min, estimated dead time 0.28 min; A: water + 0.1% formic acid, pH 3; B: acetonitrile + 0.1% formic acid, pH 3; gradient (min/%B) 0/1 5/10 8/25 9.1/99 10/99 12/1
[20] = RP, Waters ACQUITY UPLC BEH Shield RP18, 100 × 2.1 mm, 1.7 µm, 30 °C, 0.6 mL/min, estimated dead time 0.37 min; A: water + 0.1% formic acid, pH 3; B: acetonitrile + 0.1% formic acid, pH 3; gradient (min/%B) 0/0 2/0 7/10 22/95 22.1/0 26/0
[21] = RP, Merck LiChrospher RP-18, 250 × 4 mm, 5 µm, 35 °C, 0.3 mL/min, estimated dead time 6.7 min; A: water + 0.5% formic acid; B: acetonitrile + 0.5% formic acid; gradient (min/%B) 0/5 10/5 30/15 45/20 65/20 95/54 110/63 115/5 135/5
[22] = RP, Phenomenex Luna Omega Polar C18, 100 × 2.1 mm, 1.6 µm, 40 °C, 0.5 mL/min, estimated dead time 0.44 min; A: water + 0.1% formic acid + 10 mM ammonium formate; B: acetonitrile; gradient (min/%B) 0/5 8/20 10/100 12/100 12.1/5 14/5
[23] = RP, Waters ACQUITY UPLC HSS T3, 100 × 2.1 mm, 50 °C; A: water + 0.1% formic acid, pH 3; B: 30% methanol + 70% acetonitrile + 0.1% formic acid, pH 3; gradient (min/%B) 0/5 1/8 2/15 3/40 4/70 4.5/100 5/100 6.4/100 6.6/5 6.8/5 7/5
[24] = RP, Phenomenex Kinetex EVO C18, 100 × 2.1 mm, 2.6 µm, 40 °C, 0.4 mL/min, estimated dead time 0.55 min; A: water + 0.2% formic acid; B: acetonitrile + 0.2% formic acid; gradient (min/%B) 0/5 0.5/5 7/95 8/95 8.5/5 12/5

LC retention time [1] [min] | LC retention time [3] [min] | LC retention time [4] [min] | LC retention time [5] [min] | LC retention time [6] [min] | LC retention time [7] [min] | LC retention time [8] [min] | LC retention time [9] [min] | LC retention time [10] [min] | LC retention time [11] [min] | LC retention time [12] [min] | LC retention time [13] [min] | LC retention time [15] [min] | LC retention time [16] [min] | LC retention time [17] [min] | LC retention time [18] [min] | LC retention time [19] [min] | LC retention time [20] [min] | LC retention time [21] [min] | LC retention time [22] [min] | Structure (SMILES) | further results
11.2 | 20.7 | 4.13 | 2.17 | 7.59 | 23.8 | 32.7 | 21.7 | 9.48 | 4.64 | 4.67 | 2.51 | 2.44 | 14.4 | 9.17 | 7.28 | 7.16 | 12.5 | 61.3 | 6.79 | COc1cc(/C=C/C(=O)O)ccc1O [Ferulic acid] | LC retention time [2]: 5.86 min; LC retention time [14]: 5.86 min
5.38 | 7.15 | 2.59 | 1.86 |  | 15.1 | 20.2 |  | 8.4 | 3.29 | 3.49 | 2.01 | 2.13 | 8.54 | 6.09 |  | 4.73 | 6.13 |  | 3.2 | O=C(O)CNC(=O)c1ccccc1 [Hippuric acid] | LC retention time [23]: 3.07 min; LC retention time [24]: 3.8 min
4.01 | 4.92 | 1.76 | 1.48 | 3.85 | 9.27 | 16.4 | 7.9 | 7.22 | 2.31 | 1.38 | 1.54 |  | 5.02 | 3.96 | 2.23 | 2.12 | 5.2 | 29.7 | 2.06 | O=C(O)c1ccc(O)c(O)c1 [Protocatechuic acid] | LC retention time [24]: 1.55 min
10.8 | 17.6 | 3.84 | 1.99 | 7.01 | 21.7 | 30.1 | 19 | 9.24 | 4.32 | 6.96 | 2.39 | 2.3 |  | 8.4 | 6.73 | 6.97 | 12.3 | 56.2 | 5.83 | O=C(O)C=Cc1ccc(O)cc1 [p-Coumaric acid] | LC retention time [23]: 3.45 min
